Assay results published in US20100152129A1 (priority 2008, published 2010).

Key:
[1] = test system: Panc-1 cells; experiment: Propidium iodide-based fluorescence cytotoxicity assay; assay type: cell-based; conditions: single agent
Method: The combination of P276-00 and Gemcitabine was screened for its synergistic effect in Panc-1 cells using propidium iodide based fluorescence cytotoxicity assay.
Test System: The Panc-1 cell line was procured from ATCC (American Tissue type Culture Collection), USA. Catalog number: CRL-1469 and the frozen vial was stored in liquid nitrogen container. Propidium iodide dye was procured from Sigma-Aldrich, USA. Catalog number: P-4170-100 mg and it was stored at 2-8° C.
Method: Panc-1 cells were seeded at a density of 2000 cells/well, in a 200 μL in tissue culture grade 96 well plate and allowed to recover for 24 hrs in a humidified 5%±0.2 CO2 incubator at 37° C.±0.5° C. After 24 hrs, 1 μL of 200 X (200 times higher than required concentration is denoted as 200×) compound (dissolved in neat DMSO), as per Table 1 or 2 was added to the wells. The final DMSO concentration was 0.5% in wells. The plate was incubated for 24 hrs in humidified 5%±0.2 CO2 incubator at 37±0.5° C.
After 24 hrs Minimum Essential Medium (MEM) from the Gemcitabine treated wells was removed and washed two times with fresh MEM and followed by addition of 200 μL of fresh MEM per well. 1 μL of 200× (200 times higher than required concentration is denoted as 200×) compound (dissolved in neat DMSO) was then added as per the Table 1 and 2 designs. The final DMSO concentration was 0.5% in wells which also served as the vehicle control for the study. After 72 hrs the plate was removed from CO2 incubator and spent MEM aspirated from the wells and supplemented with fresh MEM. This was followed by addition of 25 μL of propidium iodide (50 μg/ml in medium) per well. The same plate was frozen at −80° C. for 24 hrs and then thawed and allowed to come to room temperature. The fluorescence at a wavelength of 530 nm excitation and 620 nm emission was read.
The percent cytotoxicity was calculated using the following formula

[2] = test system: Panc-1 cells; experiment: Cell cycle analysis by DNA content (propidium iodide, flow cytometry); assay type: cell-based; conditions: control 5.5%
Method: Understanding the status of cells cycles G1, S, G2 and M is indicative of the cytotoxic effect including apoptosis and DNA damage of anticancer drugs. In the current study FACS was used to measure the cell cycle stages in Panc 1 cells after exposure to anticancer drugs including drug combination. The synergistic effect of Gemcitabine with […]-00 on Panc-1 cancer cells was analyzed using propidium iodide based cell cycle analysis where total population of cells was sorted as sub G0, G1, S and G2/M populations according to total fluorescent intensity. […]-00 at a final concentration of 60 nM, 240 nM and 480 nM and Gemcitabine at a final concentration of 1 nM, 3 nM and 10 nM were analyzed in single dose and in all possible combinations of the dose range for the Gemcitabine and […]-00. Panc-1 cells were treated with Gemcitabine for 0 to 24 hrs. After 24 hrs the cells were washed twice with plain MEM. Fresh MEM with 10% serum (2 mL/well) was added to the wells, followed by treatment with […]-00 for 24 hrs to 96 hrs. After 96 hrs the treated cells were harvested, fixed, stained with propidium iodide and analyzed for specific cell arrest using DNA content analysis by flow cytometry. Adherent cells were trypsinized and washed with PBS or HBSS without Ca++ and Mg++ containing EDTA pH 8.0 and BSA. They were further isolated, centrifuged and total number of cells were counted and recorded. […]

[3] = test system: Panc-1 cells; experiment: Microarray gene expression analysis; assay type: cell-based, human; conditions: Panc-1, microarray
Source text: The goal of the microarray analysis was to evaluate putative gene expression signatures associated with the in vitro synergistic effect of the combination therapy of Gemcitabine with […]-00 in Panc-1 cells. The time points (3 hrs, 6 hrs, 12 hrs) were chosen to establish early molecular changes in the transcription profile for probable biomarkers and mechanism of action for the combination therapy. Approximately 20 million cells were lysed in Trizol Reagent (Invitrogen Corp, USA) and passed through a 21-gauge needle for 5-10 times before RNA extraction was performed. Total RNA extraction was performed using the RNeasy Mini kit (Qiagen, USA) according to the manufacturer's protocol. The final total RNA was eluted in nuclease-free water and the concentration/purity was determined by Nanodrop spectrophotometer (Thermo Fisher Scientific, Delaware, USA). cDNA generation and labeling: 20 μg of total RNA was reverse transcribed using amino allyl dUTP and oligo dT, the resulting cDNA was indirectly labeled with Cy3/Cy5 dyes (GE Healthcare, USA) using a fluorescent labeling kit (Promega Biosciences, USA). The concentration and dye incorporation of the labeled products were determined by Nanodrop spectrophotometer (Thermo Fisher Scientific, Delaware, USA). Equal amounts of labeled cDNA were denatured at 95° C. for 5 mins, cooled and microfuged at 13200 rpm for 5 mins before hybridization. Array fabrication and hybridization: 70-mer transcript oligonucleotides representing 36,480 human genes was purchased from Operon Biotechnologies (Germany) and spotted onto aminosilane coated glass slides (ArrayIt, USA) by contact printing using a Omnigrid (OG100) spotter (Genomic Solutions Inc, USA). Post printing, the slides were cross-linked with UV light at […], vacuumed, sealed and stored in the dark. The slides were pre-processed for background reduction using Pronto (Promega Life sciences, USA) pre-hyb kit as per the manufacturer's instructions. Hybridization was carried out in the GeneTAC Hybstation (Genomic Solutions Inc, USA) for 18 hrs. The hybridization protocol is as follows: 6 hrs at 42° C. (with agitation), 6 hrs at 35° C. (with agitation), and 6 hrs at 30° C. (with agitation). Post hybridization, the arrays were washed according to the manufacturer's protocol. The slides were dried by centrifugation at 1600 rpm for 5 mins. Scanning and image analysis: Post drying, the slides were scanned in a laser scanner (Genomic Solutions, USA) for Cy3 and Cy5 detection. The PMT settings were adjusted using the auto-exposure feature of the scanner. The TIFF files thus generated were exported to GeneTAC Integrator software (Genomic Solutions, USA) for image analysis. The resultant CSV file containing the annotated genome and the corresponding ratios were further used for data analysis.

Row | SMILES | CDK8 gene expression value (log value of intensities) [3] | DICER1 gene expression value (log value of intensities) [3] | DLG5 gene expression value (log value of intensities) [3] | DNAI1 gene expression value (log value of intensities) [3] | FA38A gene expression value (log value of intensities) [3] | FGF5 gene expression value (log value of intensities) [3] | HELLS gene expression value (log value of intensities) [3] | HIST1H2BO gene expression value (log value of intensities) [3] | ID1 gene expression value (log value of intensities) [3] | MKKS gene expression value (log value of intensities) [3] | PPIL4 gene expression value (log value of intensities) [3] | RRM2 gene expression value (log value of intensities) [3] | SLC19A2 gene expression value (log value of intensities) [3] | SNX7 gene expression value (log value of intensities) [3] | TMPRSS3 gene expression value (log value of intensities) [3] | other results
1 | CN1CC[C@@H](c2c(O)cc(O)c3c(=O)cc(-c4ccccc4Cl)oc23)[C@@H]1CO.Cl (relative stereo) [P276-00, (+)-trans-2-(2-Chloro-phenyl)-5,7-dihydroxy-8-(2-hydroxy-methyl-1-methyl-pyrrolidin-3-y1)-chromen-4-one hydrochloride] | 0.16 | 0.14 | 0.25 | −0.20 | −0.93 | 0.23 | 0.62 | −0.39 | 0.18 | −0.08 | 0.30 | −0.14 | 0.97 | −0.12 | 0.33 | % Cytotoxicity ([1]; 60 nM): 27%; % Cytotoxicity ([1]; 120 nM): 33%; % Cytotoxicity ([1]; 240 nM): 35%; % Cytotoxicity ([1]; 480 nM): 45%; % Cytotoxicity ([1]; 960 nM): 58%; population of cells in sub G0 (apoptotic cells) ([2]; 60 nM alone): 17.6%
2 | Nc1ccn([C@@H]2O[C@H](CO)[C@@H](O)C2(F)F)c(=O)n1 [Gemcitabine, 2′, 2′-difluorodeoxycytidine] | −0.03 | −0.16 | −0.19 | 0.03 | −0.70 | 0.28 | 0.40 | −0.71 | −0.60 | −0.02 | 0.36 | 0.69 | 0.37 | 0.27 | 0.85 | cytotoxicity at 0.0001 µM ([1]; Homo sapiens, PANC-1, 0.1 nM): 10%; population of cells in sub G0 (apoptotic cells) ([2]; 1 nM alone): 16.85%
